Experimental data as given in patent publication US20190240184A1, “PHARMACEUTICAL APPLICATIONS FOR (S)-N[…] SALTS THEREOF” (NATIONAL UNIVERSITY CORPORATION CHIBA UNIVERSITY, priority 2016, published 2019).

Key:
[1] = tested on: normal mice; assay: Hyperlocomotion test (side effects); details: for time after administration at which enhanced amount of locomotion returned to a normal value: ketamine 10 mg/kg, norketamine 20 mg/kg, (S)-ketamine 10 mg/kg
[2] = tested on: LPS-treated mice; assay: Tail suspension test (TST) in LPS-induced inflammatory model of depression; details: for immobility time in TST: TST 3 h after
[3] = tested on: normal mice; assay: Prepulse inhibition test (side effects)
[4] = tested on: LPS-treated mice; assay: Forced swimming test (FST) in LPS-induced inflammatory model of depression; details: for immobility time in FST: FST 5 h after
[5] = tested on: social defeat stress mice; assay: Forced swimming test (FST) in social defeat stress model of depression; type: in vivo; details: 10 mg/kg intraperitoneally; for immobility time in FST: single administration
Procedure: (§1) The TST was performed as follows. […] The FST was performed as follows. […] The LMT was performed as follows. […] The SPT was performed as follows.

[6] = tested on: social defeat stress mice; assay: 1% sucrose preference test (SPT) in social defeat stress model of depression; details: 10 mg/kg intraperitoneally, seven days after administration
[7] = tested on: social defeat stress mice; assay: Golgi staining, spine density in brain regions of social defeat stress mice; type: in vivo; details: 10 mg/kg intraperitoneally, eight days after administration
[8] = tested on: social defeat stress mice; assay: Tail suspension test (TST) in social defeat stress model of depression; type: in vivo; details: 10 mg/kg intraperitoneally; for immobility time in TST: single administration
Procedure: as §1

[9] = tested on: normal mice; assay: Conditioned place preference test (CPP) (side effects); details: 20 mg/kg; vs saline
[10] = Plasma concentration of (S)-norketamine after peroral administration of (S)-norketamine derivative; type: in vivo; details: mice; 30 mg/kg perorally; 15 min to 8 h
Procedure: The pharmacokinetic profile of an (S)-norketamine derivative was investigated through measurement of the blood concentration of (S)-norketamine after administration thereof.
The obtained blood plasma was placed into a polypropylene microtube and stored in a freezer at −80° C.
The plasma concentration of (S)-norketamine was measured by the method described below.
STD (standard) solution (10 μL) was added to mouse plasma (20 μL) as a calibration curve sample. A mixture of acetonitrile/water (1:1, v/v) was added to a sample, a blank sample, and a QC (quality control) sample.
Agitation was performed for 10 seconds, and I.S. (internal standard) solution (Norketamine-D4: 10 ng/mL) (100 μL) was added. A mixture of acetonitrile and methanol (=9:1) was added to the blank sample.
Agitation was performed for 30 seconds, followed by centrifugation at room temperature and 16,000×g for three minutes. The supernatant (80 μL) was transferred to a new microtube, and 0.001 mol/L ammonium hydrogen carbonate (100 μL) was added to the microtube.
Agitation was performed for 10 seconds, followed by centrifugation at room temperature and 16,000×g for two minutes.
The (S)-norketamine concentration was measured through HPLC.
The measurement conditions are as follows.

[11] = tested on: NMDA receptor; details: Non-Patent Document 12; cited from earlier work
[12] = 10 mg/kg intraperitoneally, vs LPS-treated mice administered saline
[13] = 10 mg/kg each, intraperitoneally
[14] = 5, 10, or 20 mg/kg intraperitoneally 23 h after LPS

SMILES | time after administration at which enhanced amount of locomotion returned to a normal value [1] [min] | immobility time in TST [2, 12] | immobility time in FST [4, 12] | immobility time in FST [5] | sucrose consumption preference in SPT [6] | spine density in frontal cortex (prelimbic region), hippocampus CA3 region and hippocampal dentate gyrus [7] | spine density in nucleus accumbens (core region and shell region) [7] | immobility time in TST [8] | CPP score (conditioned place preference, drug dependence) [9] | other results
CNC1(c2ccccc2Cl)CCCCC1=O (racemic) [ketamine] | 20 | significantly reduced immobility time | significantly reduced immobility time | – | – | – | – | – | – | amount of locomotion (hyperlocomotion effect) ([1]; 10 mg/kg, 10 minutes after administration, vs normal mice administered saline): significant increase in amount of locomotion; prepulse inhibition deficit ([3]; 10 mg/kg, prepulse stimulation at 77 dB or 81 dB): induced prepulse inhibition deficit
N[C@@]1(c2ccccc2Cl)CCCCC1=O [(R)-norketamine] | – | – | – | did not exhibit an antidepressant effect | did not restore it | did not exhibit the effect of increasing the spine density | not affected | did not exhibit an antidepressant effect | – | –
CN[C@]1(c2ccccc2Cl)CCCCC1=O [(S)-ketamine] | 30 | – | – | – | – | – | – | – | significantly increase the CPP score | amount of locomotion (hyperlocomotion effect) ([1]; 10 mg/kg, 10 minutes and 20 minutes after administration, vs normal mice administered saline): significant increase in amount of locomotion; prepulse inhibition deficit ([3]; 10 mg/kg): induced prepulse inhibition deficit
N[C@]1(c2ccccc2Cl)CCCCC1=O [(S)-norketamine] | – | – | – | significantly reduced immobility time | significantly restored the sucrose consumption preference | significantly increased the spine density | not affected | significantly reduced immobility time | did not increase the CPP score | amount of locomotion (hyperlocomotion effect) ([1]; 5, 10, or 20 mg/kg): did not affect the amount of locomotion; antidepressant effect in FST compared with (R)-norketamine [5]: significantly higher antidepressant effect than (R)-norketamine; prepulse inhibition deficit ([3]; 5, 10, or 20 mg/kg): did not induce prepulse inhibition deficit; antidepressant effect in TST compared with (R)-norketamine [8]: significantly higher antidepressant effect than (R)-norketamine
Cc1oc(=O)oc1COC(=O)N[C@]1(c2ccccc2Cl)CCCCC1=O [Compound 1, (5-methyl-2-oxo-1,3-dioxol-4-yl)methyl-(S)-(1-(2-chlorophenyl)-2-oxocyclohexyl) carbamate] | – | – | – | – | – | – | – | – | – | decrease of blood concentration compared with (S)-norketamine derivative (2) [10]: decreased more slowly
NC1(c2ccccc2Cl)CCCCC1=O (centres unmarked) [norketamine] | 20 | significantly reduced immobility time | significantly reduced immobility time | – | – | – | – | – | – | amount of locomotion (hyperlocomotion effect) ([1]; 5 mg/kg or 10 mg/kg): did not affect the amount of locomotion; amount of locomotion compared with ketamine (10 mg/kg) ([1]; 20 mg/kg, 10 minutes after administration): significantly lower than that in the mice administered ketamine (10 mg/kg); amount of locomotion (hyperlocomotion effect) ([1]; 20 mg/kg, 10 minutes after administration, vs normal mice administered saline): significant increase in amount of locomotion; affinity for an NMDA receptor, factor lower than ketamine [11]: about 6.8 fold; antidepressant effect in TST compared with ketamine [2, 13]: significantly stronger compared to ketamine; immobility time in TST [2, 14]: dose-dependently reduced immobility time; prepulse inhibition deficit ([3]; 5 mg/kg or 10 mg/kg): did not induce prepulse inhibition deficit; prepulse inhibition deficit ([3]; 20 mg/kg, prepulse stimulation at 81 dB): significantly induced prepulse inhibition deficit; antidepressant effect in FST compared with ketamine [4, 13]: significantly stronger compared to ketamine; immobility time in FST [4, 14]: dose-dependently reduced immobility time
